According to US11873298B2, “Compounds and uses thereof” (JANSSEN PHARMACEUTICA NV, priority 2017, dated 2024):

How the values were obtained:
SCD5 = target: T1, SCD5 (Homo sapiens, UniProt Q86SK9); assay: Growth inhibition of humanized yeast strain expressing SCD5 as sole desaturase; type: cell-based; details: humanized yeast strain expressing SCD5
T1 construct: host or cells: S. cerevisiae ole1Δ strain (W303 pdr1Δ pdr3Δ background), plasmid pRS316 with TDH3 promoter and CYC1 terminator
T1 sequence (Q86SK9 1-330): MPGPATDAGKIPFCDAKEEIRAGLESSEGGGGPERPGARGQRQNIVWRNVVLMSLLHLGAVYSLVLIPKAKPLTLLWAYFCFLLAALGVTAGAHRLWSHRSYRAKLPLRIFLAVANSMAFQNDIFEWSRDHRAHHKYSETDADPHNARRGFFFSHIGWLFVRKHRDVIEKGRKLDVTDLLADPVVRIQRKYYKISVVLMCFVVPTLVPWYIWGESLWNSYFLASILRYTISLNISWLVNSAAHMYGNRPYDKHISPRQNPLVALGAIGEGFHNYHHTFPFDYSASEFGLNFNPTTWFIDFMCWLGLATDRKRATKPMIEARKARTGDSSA
How it was run: (§1)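 Yeast ole1Δ strain (W303 pdr1Δ pdr3Δ background) carrying plasmid-borne Ole1, SCD1 or SCD5 as sole desaturase was grown in uracil-lacking media, pre-cultured in raffinose for 6 h, then seeded in galactose medium with compound in DMSO. Growth was read as OD600 after 30° C. incubation: 24 h for Ole1, 40 h for SCD1/SCD5.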

SCD1 = target: T2, SCD1 (Homo sapiens, UniProt O00767); assay: Growth inhibition of humanized yeast strain expressing SCD1 as sole desaturase; type: cell-based; details: humanized yeast strain expressing SCD1
T2 construct: host or cells: S. cerevisiae ole1Δ strain (W303 pdr1Δ pdr3Δ background), plasmid pRS316 with TDH3 promoter and CYC1 terminator
T2 sequence (O00767 1-359): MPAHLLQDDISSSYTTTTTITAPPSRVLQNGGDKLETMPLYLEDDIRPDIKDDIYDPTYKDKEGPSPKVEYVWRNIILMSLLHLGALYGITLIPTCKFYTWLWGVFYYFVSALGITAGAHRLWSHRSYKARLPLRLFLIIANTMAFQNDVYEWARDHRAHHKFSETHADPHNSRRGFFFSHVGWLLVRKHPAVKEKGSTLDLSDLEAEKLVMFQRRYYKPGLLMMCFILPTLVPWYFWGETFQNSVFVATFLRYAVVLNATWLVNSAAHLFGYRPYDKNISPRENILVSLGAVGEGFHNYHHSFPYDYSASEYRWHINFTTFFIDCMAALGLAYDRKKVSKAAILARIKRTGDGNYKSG
How it was run: as §1

[1] = test system: yeast strains expressing the human α-synuclein; assay: Yeast α-synuclein toxicity rescue assay (OD600 growth); details: 40 h; for EC50: read-out: α-Syn EC50; for Emax: read-out: α-Syn Emax
Ole1 = target: T3, Ole1 (Saccharomyces cerevisiae, UniProt P21147); assay: Growth inhibition of yeast strain expressing Ole1 as sole desaturase; type: cell-based; details: yeast strain expressing Ole1 as sole desaturase
T3 construct: expressed in transfected cells; host or cells: S. cerevisiae ole1Δ strain (W303 pdr1Δ pdr3Δ background), plasmid pRS316 with TDH3 promoter and CYC1 terminator
T3 sequence (P21147 1-510): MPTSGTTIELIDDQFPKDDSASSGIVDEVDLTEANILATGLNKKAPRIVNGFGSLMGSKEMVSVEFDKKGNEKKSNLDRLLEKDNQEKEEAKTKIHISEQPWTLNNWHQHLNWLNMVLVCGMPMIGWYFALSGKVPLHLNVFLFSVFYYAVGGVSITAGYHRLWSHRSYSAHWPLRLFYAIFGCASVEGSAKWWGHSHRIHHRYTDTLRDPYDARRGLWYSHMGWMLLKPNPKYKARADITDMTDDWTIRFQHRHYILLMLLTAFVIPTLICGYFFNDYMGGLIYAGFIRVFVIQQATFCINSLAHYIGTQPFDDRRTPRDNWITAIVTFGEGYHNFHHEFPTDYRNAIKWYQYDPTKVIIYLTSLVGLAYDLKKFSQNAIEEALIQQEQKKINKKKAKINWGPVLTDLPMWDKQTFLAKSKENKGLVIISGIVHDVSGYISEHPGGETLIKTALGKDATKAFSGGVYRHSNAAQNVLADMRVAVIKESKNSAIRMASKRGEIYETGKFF
How it was run: as §1

SMILES | IC50 (SCD5) | SCD5 % Max Inhibition (SCD5) | IC50 (SCD1) | SCD1 % Max Inhibition (SCD1) | EC50 [1] | Emax [1] | IC50 (Ole1) | OLE1 % Max Inhibition (Ole1)
CCOc1ccc(-c2noc(N3CCC(C(=O)N4CCN(C)C(c5ccccc5)C4)CC3)n2)cc1OC (stereo not shown) [Compound 113] | > 45 µM | 27.28% | 40.7 µM | 55.33% | 15.6 µM | 55% | > 45 µM | 5.55%
COc1ccc(-c2nnc(C3CCN(C(=O)CNC(=O)c4ccccc4)CC3)o2)cc1OC [Compound 39] | > 45 µM | 79.10% | > 45 µM | 77.01% | 18.1 µM | 216% | > 45 µM | 110.89%
Cc1nn(C)c2cc(-c3noc(N4CCN(C(=O)CNC(=O)c5ccccc5)CC4)n3)ccc12 [compound 102] | > 45 µM | – | > 45 µM | – | 0.284 µM | 411% | > 45 µM | –
Cc1nn(C)c2cc(-c3noc(C4CCN(C(=O)C5CC(=O)N(c6ccccc6)C5)CC4)n3)ccc12 (stereo not shown) [compound 89] | > 45 µM | – | > 45 µM | – | 0.165 µM | 580% | > 45 µM | –
COc1ccc(-c2noc(C3CCN(C(=O)CNC(=O)c4ccccc4OC)CC3)n2)cc1OC [Compound 144] | > 45 µM | 84.27% | > 45 µM | 79.00% | 0.521 µM | 537% | > 45 µM | 100.96%
Cc1nn(C)c2cc(-c3noc(N4CCN(C(=O)c5cc(-c6ccccc6)no5)CC4)n3)ccc12 [Compound 103] | > 45 µM | 68.60% | > 45 µM | 93.33% | 2.02 µM | 75% | > 45 µM | 5.27%
Cc1nn(C)c2nc(-c3noc(C4CCN(C(=O)C5CC(=O)N(c6ccccc6)C5)CC4)n3)ccc12 (stereo not shown) [Compound 116] | > 45 µM | 8.35% | > 45 µM | 71.12% | 9.04 µM | 345% | > 45 µM | 12.75%
Cc1nn(C)c2nc(-c3noc(C4CCN(C(=O)CNC(=O)c5ccccc5)CC4)n3)ccc12 [Compound 115] | > 45 µM | 77.85% | > 45 µM | 77.36% | 0.887 µM | 326% | > 45 µM | 101.68%
O=C(NCC(=O)N1CCC(c2nc(-c3ccc4nsnc4c3)no2)CC1)c1ccccc1 [Compound 104] | > 45 µM | 77.11% | > 45 µM | 76.89% | 1.87 µM | 253% | > 45 µM | 110.40%
Cc1nnc(C)c2cc(-c3noc(C4CCN(C(=O)CNC(=O)c5ccccc5)CC4)n3)ccc12 [Compound 105] | > 45 µM | 13.93% | > 45 µM | 41.38% | 3.18 µM | 391% | > 45 µM | 34.19%
Cc1nn(C)c2cc(-c3noc(C4CCN(C(=O)C(CO)N5Cc6ccccc6C5=O)CC4)n3)ccc12 (stereo not shown) [Compound 129] | > 45 µM | 93.05% | > 45 µM | 75.60% | 0.047 µM | 360% | > 45 µM | 3.25%
CCOc1ncc(-c2noc(C3CCN(C(=O)CN4Cc5ccccc5C4=O)CC3)n2)cc1OC [Compound 131] | > 45 µM | 98.92% | > 45 µM | 96.48% | 0.167 µM | 352% | 25.8 µM | 39.81%
Cc1nn(C)c2cc(-c3noc(C4CCN(C(=O)[C@@H]5CC(=O)N(c6ccccc6)C5)CC4)n3)ccc12 [compound 91] | > 45 µM | – | > 45 µM | – | 0.107 µM | 452% | > 45 µM | –
Cc1nn(C)c2cc(-c3noc(C4CCN(C(=O)CNC(=O)c5ccccc5)CC4)n3)cnc12 [Compound 137] | 22.3 µM | 50.61% | > 45 µM | 90.19% | 1.05 µM | 376% | > 45 µM | 96.83%
Cc1nn(C)c2ccc(-c3noc(C4CCN(C(=O)CNC(=O)c5ccccc5)CC4)n3)cc12 [Compound 95] | > 45 µM | – | 39.2 µM | – | 0.091 µM | 827% | > 45 µM | –
CCOc1ccc(-c2noc(C3CCN(C(=O)c4cc(-c5ccccc5)no4)CC3)n2)cc1OC [compound 92] | > 45 µM | – | > 45 µM | – | 2.5 µM | 187% | > 45 µM | –
Cc1noc2cc(-c3noc(C4CCN(C(=O)C5CC(=O)N(c6ccccc6)C5)CC4)n3)ccc12 (stereo not shown) [Compound 136] | > 45 µM | 17.07% | > 45 µM | 34.33% | 4.08 µM | 67% | > 45 µM | 73.60%
COc1ccccc1C(=O)NCC(=O)N1CCC(c2nc(-c3ccc4c(C)nn(C)c4c3)no2)CC1 [Compound 152] | > 45 µM | 60.91% | > 45 µM | 83.39% | 0.134 µM | 474% | > 45 µM | 2.37%
Cc1nn(C)c2cc(-c3noc(C4CCN(C(=O)[C@@H]5CN(c6ccccc6)C(=O)O5)CC4)n3)ccc12 [Compound 149] | > 45 µM | 38.72% | > 45 µM | 69.75% | 0.06 µM | 458% | > 45 µM | 90.68%
O=C(NCC(=O)N1CCC(c2nc(-c3ccc4cn[nH]c4c3)no2)CC1)c1ccccc1 [compound 88] | > 45 µM | – | 33.5 µM | – | 9.04 µM | 130% | > 45 µM | –
Cn1c(=O)n(C)c2cc(-c3noc(C4CCN(C(=O)C5CC(=O)N(c6ccccc6)C5)CC4)n3)ccc21 (stereo not shown) [Compound 123] | > 45 µM | 9.69% | > 45 µM | 73.59% | 0.069 µM | 343% | > 45 µM | 3.12%
COc1ccc(CN2CC(C(=O)N3CCC(c4nc(-c5ccc6c(C)nn(C)c6c5)no4)CC3)CC2=O)c(OC)c1 (stereo not shown) [Compound 124] | > 45 µM | 96.23% | > 45 µM | 88.87% | 17.7 µM | 395% | > 45 µM | 4.55%
CCOc1ccc(-c2noc(C3CCN(C(=O)CN4Cc5ccccc5C4=O)CC3)n2)cc1OC [Compound 106] | > 45 µM | 71.22% | > 45 µM | 78.19% | 0.1 µM | 415% | > 45 µM | 35.35%
